Holding throughout (format): biochemical
For assay [1], the target named is T1, human JAK1 (a.a. 837-1142) catalytic domain (Homo sapiens, UniProt P23458).
T1 construct: human JAK1 (a.a. 837-1142) and JAK2 (a.a. 828-1132); His tag (N); made in house; host or cells: insect cells (baculovirus)
In words: In vitro JAK kinase assay (HTRF, phosphorylation of a biotinylated peptide), JAK1. The conditions noted are these: 1 mM ATP. Here is the method: (§1) Compounds herein were tested for inhibitory activity of JAK targets according to the following in vitro assay described in Park et al., Analytical Biochemistry 1999, 269, 94-104. The catalytic domains of human JAK1 (a.a. 837-1142) and JAK2 (a.a. 828-1132) with an N-terminal His tag were expressed using baculovirus in insect cells and purified. The catalytic activity of JAK1 and JAK2 was assayed by measuring the phosphorylation of a biotinylated peptide. The phosphorylated peptide was detected by homogenous time resolved fluorescence (HTRF). IC50s of compounds were measured for each kinase in the 40 microL reactions that contain the enzyme, ATP and 500 nM peptide in 50 mM Tris (pH 7.8) buffer with 100 mM NaCl, 5 mM DTT, and 0.1 mg/mL (0.01%) BSA. For the 1 mM IC50 measurements, ATP concentration in the reactions was 1 mM. Reactions were carried out at room temperature for 1 hour and then stopped with 20 μL 45 mM EDTA, 300 nM SA-APC, 6 nM Eu-Py20 in assay buffer (Perkin Elmer, Boston, Mass.). Binding to the Europium labeled antibody took place for 40 minutes and HTRF signal was measured on a Fusion plate reader (Perkin Elmer, Boston, Mass.). See Table A for data related to compounds of the Examples (at 1 mM). Data is indicated as ranges: <20 nM (+), 20 to <150 nM (++), 150 to 500 nM (+++).
On the technique in general: In TR-FRET formats the signal depends on donor and acceptor labels being close together.

Assay [2] relates to human JAK1 (a.a. 837-1142) catalytic domain. The assay is described as above. The following applies: ratio of JAK2 IC50 to JAK1 IC50, 1 mM ATP. Here is the method: as §1
Assay [3] concerns the target T2, human JAK2 (a.a. 828-1132) catalytic domain (Homo sapiens, UniProt O60674).
T2 construct: human JAK1 (a.a. 837-1142) and JAK2 (a.a. 828-1132); His tag (N); made in house; host or cells: insect cells (baculovirus)
In words: In vitro JAK kinase assay (HTRF, phosphorylation of a biotinylated peptide), JAK2. The conditions noted are these: 1 mM ATP. The protocol: as §1

SMILES strings stand for the structures. Counter-ions that a name gives are not always drawn.

T1 sequence (P23458 849-1154): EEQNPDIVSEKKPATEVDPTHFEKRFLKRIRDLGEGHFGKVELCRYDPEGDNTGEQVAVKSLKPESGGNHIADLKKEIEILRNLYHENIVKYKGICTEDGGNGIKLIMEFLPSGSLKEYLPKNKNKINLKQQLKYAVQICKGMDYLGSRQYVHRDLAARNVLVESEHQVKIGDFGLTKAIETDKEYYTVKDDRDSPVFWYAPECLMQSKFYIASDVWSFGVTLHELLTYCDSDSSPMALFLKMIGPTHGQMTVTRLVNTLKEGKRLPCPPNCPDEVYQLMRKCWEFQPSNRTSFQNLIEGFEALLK
T2 sequence (O60674 828-1132): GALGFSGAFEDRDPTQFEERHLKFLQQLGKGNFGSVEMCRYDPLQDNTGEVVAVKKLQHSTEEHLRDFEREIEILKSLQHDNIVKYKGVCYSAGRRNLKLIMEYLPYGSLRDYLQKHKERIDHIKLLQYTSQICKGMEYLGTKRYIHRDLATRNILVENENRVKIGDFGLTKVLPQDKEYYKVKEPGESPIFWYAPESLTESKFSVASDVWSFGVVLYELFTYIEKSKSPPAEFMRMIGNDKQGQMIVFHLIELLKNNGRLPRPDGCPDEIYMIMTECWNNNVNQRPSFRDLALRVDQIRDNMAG

The IC50 is the midpoint of a concentration-inhibition curve. Lower therefore signals inhibition by little substance. Turning to `N#CC[C@]1(n2cc(-c3ncnc4[nH]ccc34)cn2)C[C@H](N2CCC(Oc3cc(CN[C@H]4C[C@@H](O)C4)cc(C(F)(F)F)n3)CC2)C1` [Example 18, {trans-3-(4-{[4-{[(cis-3-hydroxycyclobutyl)amino]methyl}-6-(trifluoromethyl)pyridin-2-yl]oxy}piperidin-1-yl)-1-[4-(7H-pyrrolo[2,3-d]pyrimidin-4-yl)-1H-pyrazol-1-yl]cyclobutyl}acetonitrile 3.6 x trifluoroacetate salt], the IC50 in assay [1] was below 20 nM; in assay [3], 20 to 150 nM. Besides, the JAK2/JAK1 in assay [2] is reported as above 10.
Taken in the same sequence, the figures for `C[C@@H](CO)NCc1cc(OC2CCN([C@H]3C[C@](CC#N)(n4cc(-c5ncnc6[nH]ccc56)cn4)C3)CC2)nc(C(F)(F)F)c1` [Example 1, {trans-3-(4-{[4-({[(1S)-2-hydroxy-1-methylethyl]amino}methyl)-6-(trifluoromethyl)pyridin-2-yl]oxy}piperidin-1-yl)-1-[4-(7H-pyrrolo[2,3-d]pyrimidin-4-yl)-1H-pyrazol-1-yl]cyclobutyl}acetonitrile] were below 20 nM, 20 to 150 nM and above 10.
Turning to `CC1(C)CN(C(=O)c2cc(OC3CCN([C@H]4C[C@](CC#N)(n5cc(-c6ncnc7[nH]ccc67)cn5)C4)CC3)nc(C(F)(F)F)c2)C1` [Example 26, {trans-3-(4-{[4-[(3,3-dimethylazetidin-1-yl)carbonyl]-6-(trifluoromethyl)pyridin-2-yl]oxy}piperidin-1-yl)-1-[4-(7H-pyrrolo[2,3-d]pyrimidin-4-yl)-1H-pyrazol-1-yl]cyclobutyl}acetonitrile], the values for the IC50 in assay [1] and in assay [3] were below 20 nM and 150 to 500 nM, respectively. Further, the JAK2/JAK1 in assay [2] is on record as above 10.
For `N#CC[C@]1(n2cc(-c3ncnc4[nH]ccc34)cn2)C[C@H](N2CCC(Nc3cc(CNCCO)nc(C(F)(F)F)n3)CC2)C1` [Example 29, {trans-3-(4-{[6-{[(2-hydroxyethyl)amino]methyl}-2-(trifluoromethyl)pyrimidin-4-yl]amino}piperidin-1-yl)-1-[4-(7H-pyrrolo[2,3-d]pyrimidin-4-yl)-1H-pyrazol-1-yl]cyclobutyl}acetonitrile] the same measures were below 20 nM, 20 to 150 nM and above 10.
For the compound `N#CC[C@]1(n2cc(-c3ncnc4[nH]ccc34)cn2)C[C@H](N2CCC(Oc3cc(C4(O)COC4)cc(C(F)(F)F)n3)CC2)C1` [Example 49, {trans-3-(4-{[4-(3-hydroxyoxetan-3-yl)-6-(trifluoromethyl)pyridin-2-yl]oxy}piperidin-1-yl)-1-[4-(7H-pyrrolo[2,3-d]pyrimidin-4-yl)-1H-pyrazol-1-yl]cyclobutyl}acetonitrile], the IC50 was below 20 nM in assay [1] and 20 to 150 nM in assay [3]. The JAK2/JAK1 in assay [2] was above 10.
For `CC1(C)CN(Cc2cc(OC3CCN([C@H]4C[C@](CC#N)(n5cc(-c6ncnc7[nH]ccc67)cn5)C4)CC3)nc(C(F)(F)F)c2)C1` [Example 13, {trans-3-(4-{[4-[(3,3-dimethylazetidin-1-yl)methyl]-6-(trifluoromethyl)pyridin-2-yl]oxy}piperidin-1-yl)-1-[4-(7H-pyrrolo[2,3-d]pyrimidin-4-yl)-1H-pyrazol-1-yl]cyclobutyl}acetonitrile] the same measures were below 20 nM, 20 to 150 nM and above 10.
Taken in the same sequence, the figures for `N#CC[C@]1(n2cc(-c3ncnc4[nH]ccc34)cn2)C[C@H](N2CCC(Oc3cc(CNC4COC4)cc(C(F)(F)F)n3)CC2)C1` [Example 11, {trans-3-(4-{[4-[(oxetan-3-ylamino)methyl]-6-(trifluoromethyl)pyridin-2-yl]oxy}piperidin-1-yl)-1-[4-(7H-pyrrolo[2,3-d]pyrimidin-4-yl)-1H-pyrazol-1-yl]cyclobutyl}acetonitrile] were below 20 nM, 20 to 150 nM and above 10.
For the compound `N#CC[C@]1(n2cc(-c3ncnc4[nH]ccc34)cn2)C[C@H](N2CCC(Nc3cc(CN[C@H]4C[C@H](O)C4)cc(C(F)(F)F)n3)CC2)C1` [Example 34, {trans-3-(4-{[4-{[(trans-3-hydroxycyclobutyl)amino]methyl}-6-(trifluoromethyl)pyridin-2-yl]amino}piperidin-1-yl)-1-[4-(7H-pyrrolo[2,3-d]pyrimidin-4-yl)-1H-pyrazol-1-yl]cyclobutyl}acetonitrile], the IC50 in assay [1] is below 20 nM; in assay [3], 20 to 150 nM. The JAK2/JAK1 in assay [2] is recorded as above 10.
Taken in the same sequence, the figures for `N#CC[C@]1(n2cc(-c3ncnc4[nH]ccc34)cn2)C[C@H](N2CCC(Nc3cc(CN4CCOCC4)cc(C(F)(F)F)n3)CC2)C1` [Example 40, {trans-3-(4-{[4-(morpholin-4-ylmethyl)-6-(trifluoromethyl)pyridin-2-yl]amino}piperidin-1-yl)-1-[4-(7H-pyrrolo[2,3-d]pyrimidin-4-yl)-1H-pyrazol-1-yl]cyclobutyl}acetonitrile] were below 20 nM, 20 to 150 nM and above 10.
For `C[C@H](CO)NCc1cc(OC2CCN([C@H]3C[C@](CC#N)(n4cc(-c5ncnc6[nH]ccc56)cn4)C3)CC2)nc(C(F)(F)F)c1` [Example 2, {trans-3-(4-{[4-({[(1R)-2-hydroxy-1-methylethyl]amino}methyl)-6-(trifluoromethyl)pyridin-2-yl]oxy}piperidin-1-yl)-1-[4-(7H-pyrrolo[2,3-d]pyrimidin-4-yl)-1H-pyrazol-1-yl]cyclobutyl}acetonitrile], the IC50 in assay [1] is below 20 nM; in assay [3], 20 to 150 nM. Also, the JAK2/JAK1 in assay [2] is on record as above 10.
For `CCNCc1cc(N(C)C2CCN([C@H]3C[C@](CC#N)(n4cc(-c5ncnc6[nH]ccc56)cn4)C3)CC2)nc(C(F)(F)F)c1` [Example 48, {trans-3-{4-[[4-[(ethylamino)methyl]-6-(trifluoromethyl)pyridin-2-yl](methyl)amino]piperidin-1-yl}-1-[4-(7H-pyrrolo[2,3-d]pyrimidin-4-yl)-1H-pyrazol-1-yl]cyclobutyl}acetonitrile] the same measures were below 20 nM, 20 to 150 nM and above 10.
Taken in the same sequence, the figures for `N#CC[C@]1(n2cc(-c3ncnc4[nH]ccc34)cn2)C[C@H](N2CCC(Oc3cc(Cn4cccn4)cc(C(F)(F)F)n3)CC2)C1` [Example 25, {trans-3-(4-{[4-(1H-pyrazol-1-ylmethyl)-6-(trifluoromethyl)pyridin-2-yl]oxy}piperidin-1-yl)-1-[4-(7H-pyrrolo[2,3-d]pyrimidin-4-yl)-1H-pyrazol-1-yl]cyclobutyl}acetonitrile] were below 20 nM, 150 to 500 nM and above 10.
Consider `N#CC[C@]1(n2cc(-c3ncnc4[nH]ccc34)cn2)C[C@H](N2CCC(Nc3cc(CN4CC[C@@H](O)C4)cc(C(F)(F)F)n3)CC2)C1` [Example 44, {trans-3-(4-{[4-{[(3R)-3-hydroxypyrrolidin-1-yl]methyl}-6-(trifluoromethyl)pyridin-2-yl]amino}piperidin-1-yl)-1-[4-(7H-pyrrolo[2,3-d]pyrimidin-4-yl)-1H-pyrazol-1-yl]cyclobutyl}acetonitrile], for which the IC50 in assay [1] is below 20 nM; in assay [3], 20 to 150 nM. Besides, in assay [2], the JAK2/JAK1 is above 10.

(Values after patent publication US9193733B2, “Piperidinylcyclobutyl substituted pyrrolopyridine and pyrrolopyrimidine derivatives as JAK inhibitors” (Incyte Corporation, priority 2012, dated 2015).)
